The supplement of paper PMC10307832

Tests used:
Assay in all cases: relative viability (nuclei count vs DMSO), 5 days (fraction); higher = more cells survive
Kobe2602 + Dasatinib = compound: C1=CC(=CC=C1NC(=S)NNC2=C(C=C(C=C2[N+](=O)[O-])C(F)(F)F)[N+](=O)[O-])F [Kobe2602] + Cc1nc(Nc2ncc(C(=O)Nc3c(C)cccc3Cl)s2)cc(N2CCN(CCO)CC2)n1 [Dasatinib] (partner 0.075 µM)
How it was run: (§1)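 Relative viability equals treated-well nuclei counts divided by vehicle-well nuclei counts. Counts came from 4× images of lung cancer cell lines grown in 1536-well plates for 5 days after pin-tool dosing on the day after seeding. Dosing used one drug alone or a fixed anchor-drug dose plus five library-drug doses (not always all listed) in √10 steps, and values are medians of duplicate plates.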

Zosuquidar + Vorinostat = compound: O[C@@H](COc1cccc2ncccc12)CN1CCN([C@@H]2c3ccccc3[C@@H]3[C@H](c4ccccc42)C3(F)F)CC1 [Zosuquidar] + O=C(CCCCCCC(=O)Nc1ccccc1)NO [Vorinostat] (partner 1 µM)
How it was run: as §1

Cabozantinib + OSI-027 = compound: COc1cc2nccc(Oc3ccc(NC(=O)C4(C(=O)Nc5ccc(F)cc5)CC4)cc3)c2cc1OC [Cabozantinib] + COc1cccc2cc(-c3nc([C@H]4CC[C@H](C(=O)O)CC4)n4ncnc(N)c34)[nH]c12 [OSI-027] (partner 0.5 µM)
How it was run: as §1

Kobe2602 + Luminespib = compound: C1=CC(=CC=C1NC(=S)NNC2=C(C=C(C=C2[N+](=O)[O-])C(F)(F)F)[N+](=O)[O-])F [Kobe2602] + CCNC(=O)c1noc(-c2cc(C(C)C)c(O)cc2O)c1-c1ccc(CN2CCOCC2)cc1 [Luminespib] (partner 0.01 µM)
How it was run: as §1

Cell Line	relative viability (Kobe2602 + Dasatinib; first compound 0.2 µM)	relative viability (Kobe2602 + Dasatinib; first compound 0.6325 µM)	relative viability (Kobe2602 + Dasatinib; first compound 2 µM)	relative viability (Kobe2602 + Dasatinib; first compound 6.325 µM)	relative viability (Kobe2602 + Dasatinib; first compound 20 µM)	relative viability (Zosuquidar + Vorinostat; first compound 0.01 µM)	relative viability (Zosuquidar + Vorinostat; first compound 0.03162 µM)	relative viability (Zosuquidar + Vorinostat; first compound 0.1 µM)	relative viability (Zosuquidar + Vorinostat; first compound 0.3162 µM)	relative viability (Zosuquidar + Vorinostat; first compound 1 µM)	relative viability (Cabozantinib + OSI-027; first compound 0.02 µM)	relative viability (Cabozantinib + OSI-027; first compound 0.06325 µM)	relative viability (Cabozantinib + OSI-027; first compound 0.2 µM)	relative viability (Cabozantinib + OSI-027; first compound 0.6325 µM)	relative viability (Cabozantinib + OSI-027; first compound 2 µM)	relative viability (Kobe2602 + Luminespib; first compound 0.2 µM)	relative viability (Kobe2602 + Luminespib; first compound 0.6325 µM)	relative viability (Kobe2602 + Luminespib; first compound 2 µM)	relative viability (Kobe2602 + Luminespib; first compound 6.325 µM)	relative viability (Kobe2602 + Luminespib; first compound 20 µM)
201T	0.618	0.59	0.568	0.497	0.484	0.886	0.942	0.799	0.997	0.962	0.453	0.877	0.772	0.877	0.774	1.02	1.05	0.993	1.14	0.966
A-427	0.673	0.766	0.675	0.701	0.779	0.86	0.853	0.836	0.94	0.511	0.375	0.537	0.468	0.486	0.472	0.943	0.872	0.85	0.893	0.911
ABC-1	0.615	0.568	–	0.769	0.47	1.17	1.04	1	1.13	0.81	0.538	0.497	0.489	0.567	0.456	0.785	0.851	–	0.494	0.887
BEN	0.322	0.353	0.395	0.303	0.324	0.548	0.579	0.574	0.662	0.553	0.314	0.311	0.28	0.299	0.24	0.507	0.576	0.386	0.481	0.436
CAL-12T	0.462	0.388	0.413	0.474	0.376	0.843	0.692	0.77	0.813	0.845	0.588	0.688	0.711	0.715	0.645	0.358	1.01	0.241	0.362	0.233
COR-L23	0.507	0.561	0.482	0.55	0.555	0.493	0.515	0.472	0.517	0.509	0.88	0.965	0.94	0.895	0.784	0.685	0.64	0.537	0.648	0.684
COR-L 105	0.392	0.366	0.357	0.362	0.338	0.961	0.826	0.777	0.891	0.875	0.682	0.785	–	0.667	0.71	0.591	0.896	0.848	0.643	0.719
ChaGo-K-1	0.646	0.57	0.604	0.59	0.576	0.741	0.657	0.796	0.781	0.733	0.426	0.589	0.562	0.603	0.505	0.684	0.53	0.743	0.617	0.507
EKVX	0.6	0.578	0.513	0.474	0.454	0.819	0.736	0.595	0.691	0.656	0.655	0.981	0.637	0.679	0.778	0.9	0.948	0.832	0.871	0.858
EMC-BAC-2	0.33	0.322	0.338	0.367	0.376	0.457	0.438	0.489	0.528	0.258	0.337	0.379	0.398	0.385	0.361	1.16	1.16	1.13	1.31	1.14
EPLC-272H	0.387	0.387	0.303	0.331	0.355	0.464	0.606	0.399	0.503	0.74	0.257	0.326	0.215	0.345	0.29	0.259	0.83	0.327	0.363	0.27
H3255	0.532	0.42	0.408	0.356	0.349	0.787	0.837	0.613	0.824	0.756	0.527	0.662	–	0.621	0.613	0.769	0.981	0.902	0.937	0.878
HARA	0.258	0.311	0.321	0.252	0.286	0.657	0.526	0.606	0.556	0.459	0.309	0.633	0.377	0.57	0.555	0.752	1.05	0.688	0.776	0.69
HCC-15	0.586	0.658	0.555	0.574	0.494	0.844	0.745	0.716	0.894	0.877	0.477	0.744	0.66	0.657	0.622	0.411	0.272	0.301	0.255	0.384
HCC-44	–	–	–	–	–	1.1	1.18	1.18	1.12	1.05	–	0.646	0.556	0.557	0.408	1.05	0.97	0.984	1.13	0.921
HCC-78	0.413	0.393	0.373	0.427	0.535	0.465	–	–	0.512	0.402	–	0.439	0.287	0.291	0.258	–	–	–	–	–
HCC-366	0.613	0.632	0.597	0.646	0.727	0.309	0.424	0.342	0.897	0.352	0.753	1.03	0.951	0.795	0.778	–	–	–	–	–
HCC-827	0.289	0.284	0.43	0.388	0.404	0.761	0.786	0.714	0.849	0.999	0.782	0.861	–	0.679	0.526	0.856	0.793	0.619	0.369	0.831
HOP-62	0.646	0.69	0.593	0.689	0.721	0.528	0.624	0.585	0.836	0.593	0.825	0.915	0.781	0.829	0.781	0.933	0.957	0.866	0.88	0.87
IA-LM	–	–	–	–	–	1.07	0.967	–	1.07	1.04	–	–	–	–	–	–	–	–	–	–
LC-2-ad	0.562	0.642	0.454	0.636	0.686	0.681	0.774	0.722	0.683	0.674	–	0.933	0.74	0.839	0.729	1.01	1.15	0.908	1.12	1.06
LCLC-97TM1	0.886	0.759	0.705	0.937	0.802	0.663	0.929	–	0.73	0.777	0.153	0.572	0.448	0.57	0.689	0.749	0.718	0.739	0.741	0.819
LCLC-103H	0.47	0.487	0.457	0.512	0.49	0.754	0.771	0.598	0.848	0.803	0.344	0.561	0.487	0.509	0.394	0.908	1.03	0.935	0.913	0.765
LK-2	0.377	0.35	0.319	0.274	0.342	0.232	0.311	0.283	0.298	0.335	0.158	0.193	0.211	0.229	0.225	0.189	0.204	0.182	0.154	0.195
LOU-NH91	0.506	0.596	0.476	0.535	0.617	0.854	0.917	0.772	0.941	0.919	0.65	0.744	–	0.652	0.704	0.387	0.338	0.326	0.367	0.331
LU99A	0.427	0.461	0.433	0.525	0.615	0.476	0.423	0.463	0.618	0.544	0.231	0.298	0.274	0.31	0.311	0.281	0.29	0.227	0.2	0.343
NCI-H1563	0.473	0.473	0.466	0.467	0.527	–	–	–	–	–	0.762	0.743	0.757	0.718	0.684	0.579	0.492	0.52	0.543	0.512
NCI-H1623	0.577	0.555	0.427	0.532	0.575	–	–	–	–	–	0.392	0.483	0.38	0.414	0.436	0.578	0.427	0.571	0.368	0.491
NCI-H1648	–	–	–	–	–	0.423	0.422	0.242	0.387	0.434	0.255	0.256	0.278	0.281	0.266	–	–	–	–	–
NCI-H1792	0.691	0.949	0.894	0.85	0.787	–	–	–	–	–	–	0.75	0.697	0.664	0.531	0.319	0.58	0.47	0.558	0.517
